The text below walks through data of US8399681B2, “Substituted aminothiazolone indazoles as estrogen related receptor-alpha modulators” (Janssen Pharmaceutica NV, priority 2009, dated 2013).

Structures are written as SMILES.

The target in this experiment is T1, ERR1 (also known as ERR-α or ERR-1) (Homo sapiens, UniProt P11474).
T1 sequence (P11474 193-421 limits assumed): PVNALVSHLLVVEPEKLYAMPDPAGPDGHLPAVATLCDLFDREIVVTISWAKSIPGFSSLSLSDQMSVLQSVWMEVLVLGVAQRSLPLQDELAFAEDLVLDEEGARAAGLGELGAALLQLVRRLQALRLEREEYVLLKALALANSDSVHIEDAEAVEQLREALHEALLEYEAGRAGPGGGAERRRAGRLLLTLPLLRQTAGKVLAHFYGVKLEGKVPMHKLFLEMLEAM
As to the kind of experiment: TR-FRET assay (disruption of co-activator peptide binding). The format is biochemical. The settings on record: 6His-tagged ERR1 LBD, GST-hSRC2 co-activator polypeptide; average of 3 independent experiments. In outline:
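His6-ERR1 LBD (6 nM) with GST-SRC-2 peptide (6 nM), anti-GST Eu cryptate (30 nM) and anti-His XL665 (7.5 nM) in Tris pH 8/KCl/DTT/BSA buffer, equilibrated 4-18 h at 25 °C. Ex 340, em 615/665 nm; hyperbolic dose-response fit, mean of 3 experiments.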
(In general: In TR-FRET formats the signal depends on donor and acceptor labels being close together.)

By EC50 is commonly meant the concentration giving half of the maximal effect. A low value points to a more potent agent. Consider `O=C1N=C(N2CCC(C(=O)O)CC2)S/C1=C\c1ccc2c(cnn2Cc2ccc(F)cc2C(F)(F)F)c1` [Example 176, 1-{5-[1-(4-Fluoro-2-trifluoromethyl-benzyl)-1H-indazol-5-ylmethylene]-4-oxo-4,5-dihydro-thiazol-2-yl}-piperidine-4-carboxylic acid], for which the 50% effective concentration (EC50) came out at 139 nM.

The molecule `O=C1N=C(N2CCO[C@H](CO)C2)S/C1=C\c1ccc2c(cnn2Cc2ccc(F)cc2C(F)(F)F)c1` [Example 177, 5-[1-(4-Fluoro-2-trifluoromethyl-benzyl)-1H-indazol-5-ylmethylene]-2-((2S)-2-hydroxymethyl-morpholin-4-yl)-thiazol-4-one] showed an EC50 of 55 nM.

`O=C1N=C(N2CCN[C@@H](CO)C2)S/C1=C\c1ccc2c(cnn2Cc2ccc(F)cc2C(F)(F)F)c1` [Example 178, 5-[1-(4-Fluoro-2-trifluoromethyl-benzyl)-1H-indazol-5-ylmethylene]-2-((3R)-3-hydroxymethyl-piperazin-1-yl)-thiazol-4-one] gave a 50% effective concentration (EC50) of 52 nM.

Molecule `O=C1N=C(N2CCNC3(CC3)C2)S/C1=C\c1ccc2c(cnn2Cc2ccc(C(F)(F)F)cc2C(F)(F)F)c1` [Example 179, 5-[1-(2,4-Bis-trifluoromethyl-benzyl)-1H-indazol-5-ylmethylene]-2-(4,7-diaza-spiro[2.5]oct-7-yl)-thiazol-4-one] came in with an EC50 of 17 nM.

For `Cc1nn(Cc2ccc(C(F)(F)F)cc2C(F)(F)F)c2ccc(/C=C3\SC(N4CCO[C@H](CO)C4)=NC3=O)cc12` [Example 180, 5-[1-(2,4-Bis-trifluoromethyl-benzyl)-3-methyl-1H-indazol-5-ylmethylene]-2-(2-(S)-hydroxymethyl-morpholin-4-yl)-thiazol-4-one], the EC50 was determined as 21 nM.

Take `Cc1nn(Cc2ccc(Cl)cc2C(F)(F)F)c2ccc(/C=C3\SC(N4CCO[C@H](CO)C4)=NC3=O)cc12` [Example 181, 5-[1-(4-Chloro-2-trifluoromethyl-benzyl)-3-methyl-1H-indazol-5-ylmethylene]-2-(2-(S)-hydroxymethyl-morpholin-4-yl)-thiazol-4-one]: a half-maximal effect (EC50) was put at 16 nM.

On to `Cc1nn(Cc2ccc(C(F)(F)F)cc2C(F)(F)F)c2ccc(/C=C3\SC(N4CCN[C@@H](CO)C4)=NC3=O)cc12` [Example 182, 5-[1-(2,4-Bis-trifluoromethyl-benzyl)-3-methyl-1H-indazol-5-ylmethylene]-2-(3-(R)-hydroxymethyl-piperazin-1-yl)-thiazol-4-one], for which the EC50 was 10.8 nM.

For `Cc1nn(Cc2ccc(Cl)cc2C(F)(F)F)c2ccc(/C=C3\SC(N4CCN[C@@H](CO)C4)=NC3=O)cc12` [Example 183, 5-[1-(4-Chloro-2-trifluoromethyl-benzyl)-3-methyl-1H-indazol-5-ylmethylene]-2-(3-(R)-hydroxymethyl-piperazin-1-yl)-thiazol-4-one], the EC50 is 4.9 nM.

Molecule `O=C1N=C(N2CCO[C@H](CO)C2)S/C1=C\c1ccc2c(c1)c(Cl)nn2Cc1ccc(C(F)(F)F)cc1C(F)(F)F` [Example 184, 5-[1-(2,4-Bis-trifluoromethyl-benzyl)-3-chloro-1H-indazol-5-ylmethylene]-2-(2-(S)-hydroxymethyl-morpholin-4-yl)-thiazol-4-one] yielded a half-maximal effective concentration (EC50) of 3 nM.

`O=C1N=C(N2CCO[C@H](CO)C2)S/C1=C\c1ccc2c(c1)c(Cl)nn2Cc1ccc(Cl)cc1C(F)(F)F` [Example 185, 5-[3-Chloro-1-(4-chloro-2-trifluoromethyl-benzyl)-1H-indazol-5-ylmethylene]-2-(2-(S)-hydroxymethyl-morpholin-4-yl)-thiazol-4-one] displayed a concentration giving a half-maximal response (EC50) of 3 nM.

Turning to `O=C1N=C(N2CCN[C@@H](CO)C2)S/C1=C\c1ccc2c(c1)c(Cl)nn2Cc1ccc(Cl)cc1C(F)(F)F` [Example 187, 5-[3-Chloro-1-(4-chloro-2-trifluoromethyl-benzyl)-1H-indazol-5-ylmethylene]-2-(3-(R)-hydroxymethyl-piperazin-1-yl)-thiazol-4-one], the EC50 was found to be 12.7 nM.

For `O=C1N=C(N2C[C@@H](F)C[C@H]2C(=O)O)S/C1=C\c1ccc2c(cnn2Cc2ccc(Cl)cc2C(F)(F)F)c1` [Example 189, 1-[5-({1-[4-Chloro-2-(trifluoromethyl)benzyl]-1H-indazol-5-yl}methylidene)-4-oxo-4,5-dihydro-1,3-thiazol-2-yl]-4-(S)-fluoro-L-proline], the half-maximal effective concentration (EC50) came to 24 nM.

The molecule `COC(=O)C1CCN(C2=NC(=O)/C(=C/c3ccc4c(cnn4Cc4ccc(C(F)(F)F)cc4C(F)(F)F)c3)S2)CC1` [Example 190, Methyl 1-[5-({1-[2,4-bis(trifluoromethyl)benzyl]-1H-indazol-5-yl}methylidene)-4-oxo-4,5-dihydro-1,3-thiazol-2-yl]piperidine-4-carboxylate] gave an EC50 of 53 nM.

In turn, `O=C1N=C(N2CCC(C(=O)O)CC2)S/C1=C\c1ccc2c(c1)c(I)nn2Cc1ccc(C(F)(F)F)cc1C(F)(F)F` [Example 191, 1-[5-({1-[2,4-Bis(trifluoromethyl)benzyl]-3-iodo-1H-indazol-5-yl}methylidene)-4-oxo-4,5-dihydro-1,3-thiazol-2-yl]piperidine-4-carboxylic acid] registered an EC50 of 3.6 nM.

With `C[C@@H]1CN(C)CCN1C1=NC(=O)/C(=C/c2ccc3c(cnn3Cc3ccc(C(F)(F)F)cc3C(F)(F)F)c2)S1` [Example 192, 5-({1-[2,4-Bis(trifluoromethyl)benzyl]-1H-indazol-5-yl}methylidene)-2-(2-(R),4-dimethylpiperazin-1-yl)-1,3-thiazol-4(5H)-one], the EC50 is 16 nM.

On to `C[C@@H]1CN(C)CCN1C1=NC(=O)/C(=C/c2ccc3c(cnn3Cc3ccc(Cl)cc3C(F)(F)F)c2)S1` [Example 193, 5-({1-[4-Chloro-2-(trifluoromethyl)benzyl]-1H-indazol-5-yl}methylidene)-2-(2-(R),4-dimethylpiperazin-1-yl)-1,3-thiazol-4(5H)-one], for which a half-maximal effect (EC50) was put at 11 nM.

As for `O=C1N=C(N2CCOC[C@@H]2C(=O)O)S/C1=C\c1ccc2c(cnn2Cc2ccc(Cl)cc2C(F)(F)F)c1` [Example 194, 4-[5-({1-[4-Chloro-2-(trifluoromethyl)benzyl]-1H-indazol-5-yl}methylidene)-4-oxo-4,5-dihydro-1,3-thiazol-2-yl]morpholine-3-(R)-carboxylic acid], the EC50 was 23.5 nM.

As for `CN1CCN(C2=NC(=O)/C(=C/c3ccc4c(cnn4Cc4ccc(C(F)(F)F)cc4C(F)(F)F)c3)S2)C[C@@H]1CO` [Example 195, 5-({1-[2,4-Bis(trifluoromethyl)benzyl]-1H-indazol-5-yl}methylidene)-2-[3-(R)-(hydroxymethyl)-4-methylpiperazin-1-yl]-1,3-thiazol-4(5H)-one], the 50% effective concentration (EC50) came to 20 nM.

Consider `CN1CCN(C2=NC(=O)/C(=C/c3ccc4c(cnn4Cc4ccc(Cl)cc4C(F)(F)F)c3)S2)C[C@@H]1CO` [Example 196, 5-({1-[4-Chloro-2-(trifluoromethyl)benzyl]-1H-indazol-5-yl}methylidene)-2-[3-(R)-(hydroxymethyl)-4-methylpiperazin-1-yl]-1,3-thiazol-4(5H)-one], for which it took 16 nM to reach a half-maximal effect (EC50).

`COCCN1CCN(C2=NC(=O)/C(=C/c3ccc4c(cnn4Cc4ccc(Cl)cc4C(F)(F)F)c3)S2)[C@H](C)C1` [Example 199, 5-({1-[4-Chloro-2-(trifluoromethyl)benzyl]-1H-indazol-5-yl}methylidene)-2-[4-(2-methoxyethyl)-2-(R)-methylpiperazin-1-yl]-1,3-thiazol-4(5H)-one] returned a concentration giving a half-maximal response (EC50) of 11 nM.

The molecule `O=C1N=C(N2CCN[C@H](CO)C2)S/C1=C\c1ccc2c(cnn2Cc2ccc(C(F)(F)F)cc2C(F)(F)F)c1` [Example 200, 5-({1-[2,4-Bis(trifluoromethyl)benzyl]-1H-indazol-5-yl}methylidene)-2-[3-(S)-(hydroxymethyl)piperazin-1-yl]-1,3-thiazol-4(5H)-one] came in with an EC50 of 13 nM.

Molecule `NCC1CN(C2=NC(=O)/C(=C/c3ccc4c(cnn4Cc4ccc(C(F)(F)F)cc4C(F)(F)F)c3)S2)CCO1` (centres unmarked) [Example 201, 2-[2-(Aminomethyl)morpholin-4-yl]-5-({1-[2,4-bis(trifluoromethyl)benzyl]-1H-indazol-5-yl}methylidene)-1,3-thiazol-4(5H)-one] yielded a concentration giving a half-maximal response (EC50) of 47 nM.

Molecule `C[C@@H]1CN(C2CN(C3=NC(=O)/C(=C/c4ccc5c(cnn5Cc5ccc(C(F)(F)F)cc5C(F)(F)F)c4)S3)C2)C[C@H](C)O1` [Example 202, 5-({1-[2,4-Bis(trifluoromethyl)benzyl]-1H-indazol-5-yl}methylidene)-2-[3-(2,6-cis-dimethylmorpholin-4-yl)azetidin-1-yl]-1,3-thiazol-4(5H)-one] yielded an EC50 of 59.7 nM.

Regarding `C[C@@H]1CN(C2CN(C3=NC(=O)/C(=C/c4ccc5c(cnn5Cc5ccc(Cl)cc5C(F)(F)F)c4)S3)C2)C[C@H](C)O1` [Example 203, 5-({1-[4-Chloro-2-(trifluoromethyl)benzyl]-1H-indazol-5-yl}methylidene)-2-[3-(2,6-cis-dimethylmorpholin-4-yl)azetidin-1-yl]-1,3-thiazol-4(5H)-one], the concentration for a half-maximal effect (EC50) is 38.8 nM.

`O=C1N=C(N2CC(N3CCOCC3)C2)S/C1=C\c1ccc2c(cnn2Cc2ccc(C(F)(F)F)cc2C(F)(F)F)c1` [Example 204, 5-({1-[2,4-Bis(trifluoromethyl)benzyl]-1H-indazol-5-yl}methylidene)-2-(3-morpholin-4-ylazetidin-1-yl)-1,3-thiazol-4(5H)-one] yielded an EC50 of 42 nM.

Molecule `O=C1N=C(N2CC(N3CCOCC3)C2)S/C1=C\c1ccc2c(cnn2Cc2ccc(Cl)cc2C(F)(F)F)c1` [Example 205, 5-({1-[4-Chloro-2-(trifluoromethyl)benzyl]-1H-indazol-5-yl}methylidene)-2-(3-morpholin-4-ylazetidin-1-yl)-1,3-thiazol-4(5H)-one] gave a concentration giving a half-maximal response (EC50) of 30 nM.
